Laboratory results as given in US20210275543A1, “METHODS FOR THE TREATMENT OF MITOCHONDRIAL GENETIC DISEASES” (NSERM (INSTITUT NATIONAL DE LA SANTÉ ET DE LA RECHERCHE …, priority 2017, published 2021).

Columns and labels:
[1] = system: primary dermal fibroblasts from patients with mitochondrial disorders and controls; test: Analysis of mitochondrial membrane potential and morphology (TMRE / 10-NAO staining, confocal microscopy and flow cytometry); type: cell-based, human
Procedure: (§1) Punch skin biopsies were collected using standard methods.
(§2) To generate dermal fibroblast cultures, biopsies were minced and incubated at room temperature in 0.05% trypsin-EDTA (ThermoFisher 25300054) solution for 30 min with gentle shaking. Cells were collected by centrifuging at 700 g for 10 min, re-suspended in cell culture media containing 25% FBS, and plated onto 24 well plates to establish lines. Fibroblast cultures were grown and maintained in 1×MEM (Corning 10-010-CV) supplemented with 25% FBS and penicillin/streptomycin (Corning 30-001-CI) to a final concentration of 100 IU penicillin and 500 μg/mL streptomycin.
Cells at similar population doubling (PD-10+/−2) were plated 1:4 from confluent cultures onto coverglass chamberslides and allowed to grow until ˜80% confluent. Media was replaced and supplemented with […] BYL719 (Chem Express) in DMSO (Fisher BP321-1), or equal volume DMSO, for 48 hours. Cells were stained for 15 min in media with 100 nM tetramethylrhodamine ethyl ester (TMRE, Fisher BDB564696) and 5 μg/mL Hoechst 33342 (Biotium 89139-126) and imaged on a Leica SP5 confocal microscope. Samples were treated and imaged in one session using identical imaging parameters. Flow cytometry analysis was performed by staining cells with only TMRE or 10-N-nonyl acridine orange (10-NAO), dissociating with trypsin-EDTA containing dye for 10 min at room temperature, collecting cells by centrifugation, resuspension in cold PBS, and analysis on a BD Canto II flow cytometer using 488 nm excitation with 585/42 BP and 530/30 BP filters for TMRE and 10-NAO, respectively. A single gate was set to cells using forward and side scatter and all settings unchanged throughout data collection. 10,000 or more events were collected for every sample.

[2] = system: phosphorylated ribosomal protein S6 (mTORC1 signaling); test: Analysis of S6 phosphorylation by western blotting in primary dermal fibroblasts; type: cell-based, human; details: for S6 phosphorylation (phosphorylated ribosomal protein S6 vs total rpS6, GAPDH): 48 hours of treatment, 5 μmol/L BYL719
Procedure: as §1, §2
Cells at similar population doubling (PD-10+/−2) were plated 1:4 from confluent cultures and allowed to grow until ˜80% confluent. Media was replaced with media containing 5 μmol/L BYL719 (Chem Express) in DMSO or equal volume DMSO for 48 hours. Cultures were rinsed with 1×PBS, treated for 10 min with 0.05% Trypsin, collected by centrifugation at 4° C., and pellets were flash frozen on dry ice. Protein lysates were collected by directly adding 1×RIPA buffer (Pierce 89900) containing protease and phosphatase inhibitors (Pierce PI78441) to cell pellets, sonicating in 10 one-second bursts, on ice, with an XL-2000 QSonica at maximum output, and centrifuging to remove cell debris. Protein concentration was determined by BCA assay (Pierce PI23228), equal protein run on 4-12% bis-tris 26 well NuPage midigels (Fisher WG1403), and transferred to nitrocellulose blots (Fisher IB23001). Blots were blocked in LICOR Odyssey blocking buffer (LICOR 427-40100), probed with primary antibodies anti-pS6, anti-S6, and anti-GAPDH (Cell Signaling 4858P, 2217S, and 2118S, respectively) followed by secondary antibody IRDye800 donkey anti-rabbit (LICOR 925-32213) and imaged using LICOR Odyssey Clx scanning imager as previously described^9. Data quantified using NIH ImageJ^11.

[3] = system: Ndufs4−/− mice; test: PIK3CA inhibition in Ndufs4 knockout mouse model of Leigh syndrome (survival); type: in vivo; details: 50 mg·kg-1 daily p.o.
Excerpt: Leigh Syndrome is a severe mitochondrial disease that occurs in about 1:40,000 newborns and is associated with retarded growth, muscular deficits including myopathy and dyspnea, lactic acidosis, and a characteristic progressive necrotizing encephalopathy of the vestibular nuclei, cerebellum, and olfactory bulb (Budde et al., 2002). Ndufs4 encodes a subunit of Complex I of the mitochondrial electron transport chain; mutations in the NDUFS4 gene cause LS in humans (Budde et al., 2000), and the Ndufs4 knockout mouse is a murine model of LS (Kruse et al., 2008). Ndufs4−/− mice have decreased Complex I levels and activity in multiple tissues and show severe and progressive symptoms of mitochondrial disease that mirror human LS. LS results in death at an average of […] in humans, and Ndufs4 KO mice show a similar early-life mortality with an average lifespan of just 60 days. Heterozygous Ndufs4 knockout mice on a C57Bl/6NIA background were bred to produce homozygous KO animals. Animals were fed ad libitum and housed at a constant ambient temperature in a 12-hour light cycle. Animal procedures were approved by the “Services Vétérinaires de la Prefecture de Police de Paris” Departmental Director and by the ethical committee of the Paris Descartes University.
At the age of 21 days, Ndufs4−/− mice were treated with the PI3KCA inhibitor, BYL719 (MedChem Express; 50 mg·kg-1 in 0.5% carboxymethylcellulose (Sigma Aldrich), daily p.o.) (n=9) or vehicle (0.5% carboxymethylcellulose (Sigma Aldrich), daily p.o.) (n=8).

[4] = primary MELAS patient and control fibroblast lines, FIG. 1A

Molecule | mitochondrial membrane potential (TMRE staining intensity) and morphology (fragmentation, depolarized mitochondria) ([1]; MELAS fibroblasts, 48 hours, confocal microscopy, FIG. 1C) | membrane potential (TMRE) by flow cytometry ([1]; MELAS fibroblasts, flow cytometry, data not shown) | mitochondrial membrane potential (TMRE staining intensity) and morphology ([1]; control cells, 48 hours, confocal microscopy, FIG. 1C) | pS6 levels ([2]; all cell lines (patients with mitochondrial disorders and controls), 48 hours, FIGS. 1A and 1B) | S6 phosphorylation (phosphorylated ribosomal protein S6 vs total rpS6, GAPDH) ([2]; other mitochondrial disorders and control fibroblast lines, FIG. 1B) | S6 phosphorylation (phosphorylated ribosomal protein S6 vs total rpS6, GAPDH) [2, 4] | animal survival ([3]; Ndufs4−/− mice treated from age 21 days, vs vehicle, FIG. 2) | appearance of treated animals ([3]; Ndufs4−/− mice, 120 days later) | time alive ([3]; Ndufs4−/− mice, all placebo-treated mice died within 80 days) [days]
Cc1nc(NC(=O)N2CCC[C@H]2C(N)=O)sc1-c1ccnc(C(C)(C)C(F)(F)F)c1 [BYL719, Alpelisib] | attenuated these phenotypes in all MELAS fibroblasts | rescue | no overt impact | reduced pS6 levels in all cell lines | inhibited S6 phosphorylation | inhibited S6 phosphorylation | dramatically improved animal survival | overtly normal appearance | ≥ 120
cyclosporin A | – | – | – | – | – | no significant impact | – | – | –
